Laboratory results from the supplement of paper PMC8149375.

Columns and labels:
Conditions in all cases: treatment: drug + dasatinib (fixed dose, not stated); 5 days
SN12C [1] = assay: minimum viability across doses, drug + dasatinib, relative to DMSO (fraction); higher = less growth inhibition
Experimental: (§1)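 Primary HTS combination arm: 8 RCC cell lines treated with 8 doses (up to 10 uM) of each library drug plus a fixed dose of dasatinib (dose not stated) for 5 days; viability read by CellTiter-Glo and normalised to DMSO. GI50 was fitted with XLfit, AUC is the area under the dose-response curve, and minimum viability is the lowest fraction of DMSO viability across doses.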

ACHN [2] = assay: as above
Experimental: as §1

A498 [3] = assay: as above
Experimental: as §1

786-O [4] = assay: as above
Experimental: as §1

769-P [5] = assay: as above
Experimental: as §1

TK-10 [6] = assay: as above
Experimental: as §1

UO-31 [7] = assay: as above
Experimental: as §1

CAKI-1 [8] = assay: as above
Experimental: as §1

SN12C [9] = assay: GI50 of drug in presence of dasatinib; higher = less potent
Experimental: as §1

ACHN [10] = assay: as above
Experimental: as §1

A498 [11] = assay: as above
Experimental: as §1

786-O [12] = assay: as above
Experimental: as §1

769-P [13] = assay: as above
Experimental: as §1

TK-10 [14] = assay: as above
Experimental: as §1

UO-31 [15] = assay: as above
Experimental: as §1

CAKI-1 [16] = assay: as above
Experimental: as §1

SN12C [17] = assay: AUC of dose-response viability curve, drug + dasatinib, normalised to DMSO (arbitrary (AUC of normalised viability)); higher = less growth inhibition
Experimental: as §1

ACHN [18] = assay: as above
Experimental: as §1

A498 [19] = assay: as above
Experimental: as §1

786-O [20] = assay: as above
Experimental: as §1

769-P [21] = assay: as above
Experimental: as §1

TK-10 [22] = assay: as above
Experimental: as §1

UO-31 [23] = assay: as above
Experimental: as §1

CAKI-1 [24] = assay: as above
Experimental: as §1

Row | SMILES | minimum viability across doses (SN12C [1]) | minimum viability across doses (ACHN [2]) | minimum viability across doses (A498 [3]) | minimum viability across doses (786-O [4]) | minimum viability across doses (769-P [5]) | minimum viability across doses (TK-10 [6]) | minimum viability across doses (UO-31 [7]) | minimum viability across doses (CAKI-1 [8]) | GI50 of drug (SN12C [9]) [nM] | GI50 of drug (ACHN [10]) [nM] | GI50 of drug (A498 [11]) [nM] | GI50 of drug (786-O [12]) [nM] | GI50 of drug (769-P [13]) [nM] | GI50 of drug (TK-10 [14]) [nM] | GI50 of drug (UO-31 [15]) [nM] | GI50 of drug (CAKI-1 [16]) [nM] | AUC of dose-response viability curve (SN12C [17]) | AUC of dose-response viability curve (ACHN [18]) | AUC of dose-response viability curve (A498 [19]) | AUC of dose-response viability curve (786-O [20]) | AUC of dose-response viability curve (769-P [21]) | AUC of dose-response viability curve (TK-10 [22]) | AUC of dose-response viability curve (UO-31 [23]) | AUC of dose-response viability curve (CAKI-1 [24])
1 | COc1cc(OC)c(/C=C/S(=O)(=O)Cc2ccc(OC)c(NCC(=O)[O][Na])c2)c(OC)c1 + Cc1nc(Nc2ncc(C(=O)Nc3c(C)cccc3Cl)s2)cc(N2CCN(CCO)CC2)n1 [dasatinib] | 0.184 | 0.088 | 0.138 | 0.0033 | 0.0648 | 0.292 | 0.00998 | 0.0849 | 163 | 27.9 | 78.6 | 18.1 | 31.6 | 148 | 58.6 | 15.7 | 1.67 | 1.18 | 1.71 | 0.766 | 1.04 | 1.79 | 1.28 | 0.99
2 | COc1cc2ncnc(Nc3cccc(Br)c3)c2cc1OC.Cl + Cc1nc(Nc2ncc(C(=O)Nc3c(C)cccc3Cl)s2)cc(N2CCN(CCO)CC2)n1 [dasatinib] | 0.547 | 0.181 | 0.835 | 0.0127 | 0.157 | 0.124 | 0.0122 | 0.237 | > 10000 | 5.77 | > 10000 | 2860 | 111 | 884 | 8520 | 2490 | 2.32 | 1.18 | 3.5 | 2.14 | 1.69 | 2.19 | 2.94 | 2.22
3 | c1ccc2c(-c3cnn4cc(-c5ccc(N6CCNCC6)cc5)cnc34)ccnc2c1 + Cc1nc(Nc2ncc(C(=O)Nc3c(C)cccc3Cl)s2)cc(N2CCN(CCO)CC2)n1 [dasatinib] | 0.00173 | 0.0011 | 0.00332 | 0.00229 | 0.00161 | 0.00532 | 0.00301 | 0.00191 | 1580 | 999 | 3180 | 2090 | 1340 | 3060 | 3050 | 1790 | 2.19 | 1.77 | 3.1 | 2.41 | 2.03 | 2.51 | 3.73 | 2.19
4 | NCC(=O)Nc1ccc(-n2nc(C(F)(F)F)cc2-c2ccc3c(ccc4ccccc43)c2)cc1 + Cc1nc(Nc2ncc(C(=O)Nc3c(C)cccc3Cl)s2)cc(N2CCN(CCO)CC2)n1 [dasatinib] | 0.00289 | 0.0394 | 0.0159 | 0.00632 | 0.0325 | 0.177 | 0.0147 | 0.00695 | 4510 | 729 | 2100 | 1060 | 2650 | 2750 | 2580 | 3650 | 2.31 | 1.81 | 2.71 | 1.94 | 2.22 | 2.41 | 2.72 | 2.5
5 | O=C(NOCC(O)CO)c1cc(Br)c(F)c(F)c1Nc1ccc(I)cc1F (stereo unspecified) + Cc1nc(Nc2ncc(C(=O)Nc3c(C)cccc3Cl)s2)cc(N2CCN(CCO)CC2)n1 [dasatinib] | 0.357 | 0.279 | 0.344 | 0.327 | 0.278 | 0.404 | 0.164 | 0.133 | 1220 | 26.5 | 1560 | 149 | 800 | 2540 | 1690 | 680 | 2.1 | 1.45 | 2.39 | 1.75 | 2.06 | 2.23 | 2.59 | 1.91
6 | C[C@@H]1CN(CC(=O)Nc2ccc3c(c2)Cc2cccc(-c4cc(=O)cc(N5CCOCC5)o4)c2S3)C[C@H](C)O1 + Cc1nc(Nc2ncc(C(=O)Nc3c(C)cccc3Cl)s2)cc(N2CCN(CCO)CC2)n1 [dasatinib] | 0.511 | 0.381 | 0.771 | 0.282 | 0.373 | 0.589 | 0.213 | 0.165 | > 10000 | 4110 | > 10000 | 3470 | 5520 | > 10000 | 6110 | 3790 | 2.48 | 2.04 | 3.33 | 2.51 | 2.37 | 2.69 | 4.18 | 2.15
7 | O=c1cc(N2CCOCC2)oc2c(-c3cccc4c3sc3ccccc34)cccc12 + Cc1nc(Nc2ncc(C(=O)Nc3c(C)cccc3Cl)s2)cc(N2CCN(CCO)CC2)n1 [dasatinib] | 0.401 | 0.139 | 0.442 | 0.0139 | 0.225 | 0.289 | 0.0435 | 0.112 | > 10000 | 1800 | 8330 | 763 | 3090 | 4630 | 2850 | 847 | 2.38 | 2.09 | 3.4 | 1.89 | 2.36 | 2.52 | 3.36 | 1.96
8 | O=C(NOC[C@H](O)CO)c1ccc(F)c(F)c1Nc1ccc(I)cc1F + Cc1nc(Nc2ncc(C(=O)Nc3c(C)cccc3Cl)s2)cc(N2CCN(CCO)CC2)n1 [dasatinib] | 0.308 | 0.3 | 0.302 | 0.377 | 0.173 | 0.296 | 0.0632 | 0.0721 | 233 | 13.5 | 259 | 266 | 74.4 | 335 | 141 | 148 | 1.75 | 1.36 | 1.85 | 1.85 | 1.42 | 1.91 | 1.6 | 1.51
9 | COc1cccc(-c2cc(=O)c3ccccc3o2)c1N + Cc1nc(Nc2ncc(C(=O)Nc3c(C)cccc3Cl)s2)cc(N2CCN(CCO)CC2)n1 [dasatinib] | 0.658 | 0.511 | 0.908 | 0.541 | 0.645 | 0.655 | 1.08 | 0.612 | > 10000 | > 10000 | > 10000 | > 10000 | > 10000 | > 10000 | > 10000 | > 10000 | 2.49 | 2.01 | 3.37 | 2.58 | 2.48 | 2.57 | 3.99 | 2.27
10 | Cc1cc(Nc2cc(CN3CCOCC3)c3nc(C)c(Cc4ccc(Cl)cc4F)n3n2)[nH]n1 + Cc1nc(Nc2ncc(C(=O)Nc3c(C)cccc3Cl)s2)cc(N2CCN(CCO)CC2)n1 [dasatinib] | 0.105 | 0.0702 | 0.194 | 0.00749 | 0.0393 | 0.0211 | 0.0199 | 0.00448 | 1340 | 436 | 4200 | 262 | 1620 | 1950 | 2610 | 410 | 2.1 | 1.75 | 3.43 | 1.65 | 2.24 | 2.43 | 3.83 | 1.73
11 | CN1CCN(c2ccc([N+](=O)[O-])c3no[n+]([O-])c23)CC1 + Cc1nc(Nc2ncc(C(=O)Nc3c(C)cccc3Cl)s2)cc(N2CCN(CCO)CC2)n1 [dasatinib] | 0.687 | 0.539 | 0.862 | 0.517 | 0.644 | 0.64 | 0.864 | 0.624 | > 10000 | > 10000 | > 10000 | > 10000 | > 10000 | > 10000 | > 10000 | > 10000 | 2.52 | 2.07 | 3.19 | 2.2 | 2.12 | 2.41 | 3.44 | 2.27
12 | CC(C)(C)Cn1c(N)nc2ccc(-c3[nH]c(C(C)(C)C)nc3-c3ccc(F)cc3)nc21.CS(=O)(=O)O.CS(=O)(=O)O + Cc1nc(Nc2ncc(C(=O)Nc3c(C)cccc3Cl)s2)cc(N2CCN(CCO)CC2)n1 [dasatinib] | 0.54 | 0.244 | 0.949 | 0.617 | 0.255 | 0.447 | 0.508 | 0.435 | > 10000 | 24.9 | > 10000 | > 10000 | 1760 | 5500 | > 10000 | 4370 | 2.36 | 1.45 | 3.68 | 2.48 | 2.07 | 2.23 | 3.24 | 2.18
13 | CC(=O)c1c(C)c2cnc(Nc3ccc(N4CCNCC4)cn3)nc2n(C2CCCC2)c1=O.Cl + Cc1nc(Nc2ncc(C(=O)Nc3c(C)cccc3Cl)s2)cc(N2CCN(CCO)CC2)n1 [dasatinib] | 0.368 | 0.0923 | 0.566 | 0.174 | 0.0419 | 0.186 | 0.166 | 0.0887 | 1190 | 19 | > 10000 | 174 | 231 | 523 | 1530 | 179 | 2.1 | 1.32 | 2.92 | 1.87 | 1.8 | 2.06 | 2.58 | 1.71
14 | CCN(CC)CCCCNc1ncc2cc(-c3cc(OC)cc(OC)c3)c(NC(=O)NC(C)(C)C)nc2n1 + Cc1nc(Nc2ncc(C(=O)Nc3c(C)cccc3Cl)s2)cc(N2CCN(CCO)CC2)n1 [dasatinib] | 0.0905 | 0.042 | 0.139 | 0.00578 | 0.207 | 0.258 | 0.0119 | 0.0229 | 366 | 19.8 | 3570 | 1210 | 1820 | 1390 | 696 | 80.1 | 1.9 | 1.28 | 2.67 | 2.02 | 2.13 | 2.18 | 2.28 | 1.31
